ChEMBL document CHEMBL1255490, “In vitro activities of DC-159a, a novel fluoroquinolone, against Mycobacterium species” (Antimicrob Agents Chemother, 2010)
Values after ≈ are worked out from the molar mass of the structure shown.

Test system: Mycobacterium tuberculosis
Test: Antimycobacterial activity against quinolone-resistant multidrug-resistant Mycobacterium tuberculosis after 21 days by agar dilution method
Type: functional
Settings: 504 h

Compound | MIC [µg/mL] | MIC50 [µg/mL] | MIC90 [µg/mL]
COc1c(N2CC3(CC3)[C@](C)(N)C2)c(F)cc2c(=O)c(C(=O)O)cn([C@@H]3C[C@@H]3F)c12 | 0.125 (≈ 0.298 µM) | 0.125 (≈ 0.298 µM) | 0.5 (≈ 1.19 µM)
COc1c(N2CCNC(C)C2)c(F)cc2c(=O)c(C(=O)O)cn(C3CC3)c12 (stereo unspecified) [GATIFLOXACIN] | – | 1 (≈ 2.66 µM) | 2 (≈ 5.33 µM)
C[C@H]1COc2c(N3CCN(C)CC3)c(F)cc3c(=O)c(C(=O)O)cn1c23.C[C@H]1COc2c(N3CCN(C)CC3)c(F)cc3c(=O)c(C(=O)O)cn1c23.O [LEVOFLOXACIN] | – | 8 | 16
COc1c(N2C[C@@H]3CCCN[C@@H]3C2)c(F)cc2c(=O)c(C(=O)O)cn(C3CC3)c12 [MOXIFLOXACIN] | – | 2 (≈ 4.98 µM) | 4 (≈ 9.96 µM)
CO[C@H]1/C=C/O[C@@]2(C)Oc3c(C)c(O)c4c(O)c(c(/C=N/N5CCN(C)CC5)c(O)c4c3C2=O)NC(=O)/C(C)=C\C=C\[C@H](C)[C@H](O)[C@@H](C)[C@@H](O)[C@@H](C)[C@H](OC(C)=O)[C@@H]1C [RIFAMPIN] | – | 128 (≈ 156 µM) | > 128
